# What was measured:
# mice = test: Toxicity Tests (intraperitoneal LD50); format: in vivo; details: i.p., table: mean values and 95% confidence limits
# [1] = system: chloroform anoxia arrhythmia in mice; test: Chloroform Anoxia Assay (chloroform-induced ventricular fibrillation); format: in vivo, Female Swiss albino mice; details: for Therapeutic Index (LD50/ED50): ED50 from chloroform anoxia, LD50 i.p.; for potency against chloroform/anoxia-induced arrhythmia versus quinidine: earlier work of applicants; for ED50: i.p., 10 min before chloroform, table: mean values and 95% confidence limits; for Antiarrhythmic Potency: quinidine = 1.00, chloroform anoxia
# Experimental: The same four compounds were tested for their ability to protect mice from chloroform anoxia by the classical chloroform inhalation procedure described in Lawson J. W.: Antiarrhythmic activity of some isoquinoline derivatives determined by a rapid screening procedure in the mouse, J. Pharmacol. Exp. Ther. 160: 22-31, (1968). In this method, chloroform inhalation leading to respiratory arrest produces ventricular fibrillation. Female Swiss albino mice procured from Laboratory Supply Company, Indianapolis, Indiana, weighing 16-22 g, were pretreated intraperitoneally with the compound under test dissolved in a 5% dextrose solution 10 minutes before exposure to chloroform in a closed container containing chloroform-saturated cotton. The mice were removed from the chloroform atmosphere immediately after respiratory arrest and the electrocardiograph lead II monitored. The ED 50 and 95% confidence limits calculated for the anti-arrhythmic agents by the standard method of Litchfield and Wilcoxon.
# [2] = system: thoracic aorta strips contracted with potassium chloride; test: Vasodilator activity: potassium chloride-contracted aortic strips; format: cell-based, male Sprague-Dawley rats; details: rat aorta contracted with 40 mM potassium chloride; read-out: IC50 (mean and range of SEM) KCl
# Source text: (§1) Pr-MDI, bu-MDI, Q-bu-MDI and the compounds of Formulae IIIA, IIIB and IVA having the two R1 groups together forming a methylene group, each R3 a methyl group and R2 an n-propyl group or n-butyl group (the compounds of Formula III are hereinafter abbreviated as sat-pr-MDI and sat-bu-MDI respectively, reference being made where necessary to the cis isomer of Formula III A or the trans isomer of Formula III B while the compounds of Formula IV are similarly referred to as cis sat-Q-pr-MDI and cis sat-Q-bu-MDI) were tested for vasodilator activity by the method of R. F. Furchgott and S. Bhadrakom, J. P. Pharmacol. Ex. Ther., 108, 129-143 (1953).
# (§2) The vasodilator activity tests were conducted on male Sprague-Dawley rats, obtained from Harlan Industries, Inc., Cumberland, Indiana. The rats, weight 250-300 g., were sacrified by cervical dislocation and a 2.5 cm. segment of the thoracic aorta was removed and rinshed in physiological buffer. Each aortic segment was cleaned of connective tissue and cut spirally two yield to strips, each 3 by 15 mm. Each strip was mounted isometrically under a tension of 1 g in a 10 ml. tissue bath thermostatically maintained at 37° C. and containing a normal physiological solution aerated with a 95% oxygen/5% carbon dioxide mixture. Forces generated by the strip were monitored using a Grass FT03 isometric transducer coupled to a Grass module 7D polygraph recorder, both the transducer and the recorder being obtained from Grass Instrument Co., of Quincy, Mass.
# (§3) After the aortic tissue had been allowed to equilibriate for 1-1.5 hours in the normal physiologic solution, tissue contraction was induced by introducing either 10^-7 M norepinephrine or 40mM potassium chloride buffer to the tissue bath.
# (§4) To avoid interference by loss of tension due to time dependent tissue fatigue, separate preliminary experiments were performed to determine the degree of tissue relaxation due to such fatigue and the value of the control tension generated by norepinephrine or potassium chloride prior to the addition of the test compounds was adjusted whenever the duration of the experiment was such that fatigue could be expected to cause more than a 6% loss of tension. […] All concentrations mentioned hereinafter represent the final concentration of the test compound after dilution in the tissue bath.
# (§5) The figures of concentration against percent response data obtained from each aortic tissue were transformed to its appropriate probit value and IC50 values were then estimated using linear regression analysis. The normal physiological solution contained 6.9 g/l of sodium chloride, 0.35 g/l of potassium chloride, 0.11 g/l of magnesium chloride hexahydrate, 0.138 g/l of sodium dihydrogen phosphate, 2.1 g/l of sodium bicarbonate, 0.01 g/l of EDTA, 0.368 g/l of calcium chloride dihydrate and 2.0 g/l of dextrose. The high potassium buffers were obtained by substituting potassium chloride for sodium chloride on an equimolar basis to maintain tonicity.
# [3] = system: spontaneously beating right atria; test: Effects on isolated guinea pig atria: spontaneously beating right atria; format: cell-based
# Source text: (§6) The effects of pr-MDI, bu-MDI and Q-bu-MDI on the mechanical and electrical behavior of isolated guinea pig atria were investigated by the method of H. Nawrath, J. Pharmacol. Exp. Ther., 16, 176-182 (1980). The compounds were investigated over the concentration range of 10^-8 to 3×10^-4 M.
# (§7) English short-haired guinea pigs, supplied by Carr Animal Supply, of Powell, Ohio, weighing 300-600 g. were killed by a blow on the head and both atria of the animal were quickly dissected out and suspended in a water-jacketed organ bath containing Krebs-Henseleit solution through which a 95% oxygen/5% carbon dioxide mixture was bubbled at 32° C. The solution contained 6.92 g/l of sodium chloride, 0.35 g/l of potassium chloride, 0.29 g/l of magnesium […] heptahydrate, 0.3 g/l of calcium chloride dihydrate, 0.16 g/l of potassium dihydrogen phosphate, 2.1 g/l of sodium bicarbonate and 2.1 g/l of dextrose. The contractile force generated by the isolated artria was recorded isometrically under a 500 mg. preload using a Narco Biosystems force transducer connected to a physiograph DMP-4B recorder, both the transducer and the recorder being obtained from E & M Instrument Co. of Houston, Texas.
# Spontaneously beating right atria were tested in a similar manner.
# isolated left atria = test: Effects on isolated guinea pig atria: electrically driven left atria; format: cell-based
# Source text: as §6, §7
# The isolated left atria were electrically driven by square wave impulses of 3 milliseconds duration at a frequency of 3 Hz. and a voltage of twice the threshold voltage, delivered by a Grass S9 stimulator obtained from Grass Instrument Co., of Quincy, Massachusetts. Two platinum electrodes were used for the stimulation, the anode being in direct contact with the atrial tissue while the cathode had the form of a ring suspended 2.5 centimeters above the anode. Before redetermination of the threshold voltage and generation of a predrug (control) frequency-force profile over the range of 1-5 Hz., an equilibriation time of one hour was allowed. The system was then re-equilibriated at 3 Hz. and twice the threshold voltage as before, then one cumulative dose-response curve of contractile force for one test compound was obtained, followed immediately by redetermination of the threshold voltage and the generation of a post-drug frequency-force profile.
# A paired Student's t-test was used to compare predrug and postdrug threshold voltages for each left atrial preparations as well as to compare developed tension at each frequency in the profile of each left atrial preparation. P values of less than 0.05 were considered statistically significant.
# [4] = tested acutely and subchronically; earlier published work; cited from earlier work
# [5] = system: calcium-induced arrhythmias in rats; test: Calcium-induced arrhythmias (CaCl2 injected i.v. into anesthetized rats); details: for potency and safety against calcium-induced arrhythmia versus verapamil: earlier work of applicants; for concentration effective against calcium-induced arrhythmias / deleterious side effects: i.v.; for concentration effective against calcium-induced arrhythmias: 10 min before CaCl2; for deleterious side effects: Q-bu-MDI at 0.5 mg/kg, pr-MDI and bu-MDI at 3.75 mg/kg
# Source text: The experimental method used was that described in Lynch J. J., Rahwan R. G., Witiak D. T.: Effects of 2-substituted-3-dimethylamino-5,6-methylenedioxyindenes on calcium-inducedarrhythmias, J. Cardiovasc. Pharmacol. 3: 49-60 (1981). Male Sprague-Dawley rats weighing 180-250 grams were anesthetized with sodium pentobarbital and a cannula was inserted into the left jugular vein for drug administration. Electrocardiograph equipment was connected to the rat and the lead II was continuously monitored. The compound under test, dissolved in 5% dextrose solution, was administered into the jugular vein of anesthetized rats over a 40 second period. Ten minutes after this treatment, an acute dose of 1 ml/kg of a 10% CaCl2.2H2 O solution was injected into the jugular vein over a period of 10 seconds. The arrhythmias resulting from the calcium administration were graded according to the following criteria: (a) initial change in heart rate following calcium administration; (b) incidences of sinoatrial block, atrioventricular block, ectopic beats, and ventricular flutter and fibrillation; (c) time required for reversion to control ECG; and (d) incidence of mortality.
# [6] = system: thoracic aorta strips contracted with norepinephrine; test: Vasodilator activity: norepinephrine-contracted aortic strips; format: cell-based, male Sprague-Dawley rats; details: for relaxation of the aortic tissue: norepinephrine- or KCl-treated tissue; for comparative vasodilator activity, norepinephrine-treated tissue: norepinephrine-treated aortic tissue; for IC50: rat aorta contracted with 10^-7 M norepinephrine, read-out: IC50 (mean and range of SEM) Norepinephrine
# Source text: as §1, §2, §3, §4, §5
smiles,measurement,setting,value
"CCCCC1=Cc2cc3c(cc2C1N(C)C)OCO3.Cl (stereo not drawn) [bu-MDI, 2-butyl-5-6methylenedioxyindene-1-dimethylammonium hydrochloride, reference compound]",LD50,mice,185 mg/kg
same,Therapeutic Index (LD50/ED50),[1],4.2
same,potency against chloroform/anoxia-induced arrhythmia versus quinidine,[1],more potent than quinidine
same,ED50,"[1]; n = 40, hydrochloride, 10 min",44 mg/kg
same,ED50,"[1]; n = 40, listed as Bu--MDI, hydrochloride, 10 min",44.0 mg/kg
same,Antiarrhythmic Potency,[1],1.52
same,IC50,[2],20.3 µM
same,"time to sustained peak effect, right atria, highest concentrations",[3]; 10^-4 M and 3×10^-4 M,5 to 10 min
same,effect on spontaneous atrial rate,[3]; 10^-8 to 3×10^-4 M,substantially identical to that of Q-bu-MDI
same,effect on the contractile force of right atria,[3]; except at 3×10^-4 M for Q-bu-MDI,much greater negative inotropy
same,effect on frequency-force profile/relation of the stimulated left atrium,isolated left atria; 3×10^-4 M,significant depression of the frequency-force profile
same,effect on threshold voltage required to drive the atria,isolated left atria; 3×10^-4 M,significantly decreased the threshold voltage
same,effect on contractile force of the electrically stimulated left atrium,isolated left atria; 10^-8 to 3×10^-4 M,considerably greater than that of Q-bu-MDI
same,toxicity,[4],remarkable lack of toxicity
same,potency and safety against calcium-induced arrhythmia versus verapamil,[5],more potent and safer then verapamil
same,concentration effective against calcium-induced arrhythmias,[5],3.75 mg/kg
same,deleterious side effects,[5],without deleterious side effects
same,relaxation of the aortic tissue,[6],relaxed the aortic tissue
same,"comparative vasodilator activity, norepinephrine-treated tissue",[6],considerably more active than Q-bu-MDI
same,IC50,[6],74.1 µM
"CCCC1=Cc2cc3c(cc2C1N(C)C)OCO3.Cl (stereo not drawn) [pr-MDI, 2-propyl-5,6-methylenedioxyindene-1-dimethylammonium chloride, reference compound]",LD50,mice,185 mg/kg
same,Therapeutic Index (LD50/ED50),[1],2.7
same,potency against chloroform/anoxia-induced arrhythmia versus quinidine,[1],as potent as quinidine
same,ED50,"[1]; n = 40, 10 min",68 mg/kg
same,ED50,"[1]; n = 40, listed as Pr--MDI, 10 min",68.0 mg/kg
same,Antiarrhythmic Potency,[1],0.99
same,IC50,[2],21.4 µM
same,effect on frequency-force profile/relation of the stimulated left atrium,isolated left atria; 3×10^-4 M,virtually identical to that of the butyl homolog
same,overall effect on mechanical and electrical behavior of atria,isolated left atria; 10^-8 to 3×10^-4 M,generally similar to those of bu-MDI
same,toxicity,[4],remarkable lack of toxicity
same,potency and safety against calcium-induced arrhythmia versus verapamil,[5],more potent and safer then verapamil
same,concentration effective against calcium-induced arrhythmias,[5],3.75 mg/kg
same,deleterious side effects,[5],without deleterious side effects
same,relaxation of the aortic tissue,[6],relaxed the aortic tissue
same,"comparative vasodilator activity, norepinephrine-treated tissue",[6],considerably more active than Q-pr-MDI
same,IC50,[6],78.2 µM
